Measured values as given in ChEMBL document CHEMBL2074565, “Molecular mechanisms of organic cation transport in OCT2-expressing Xenopus oocytes” (Biochim Biophys Acta, 1999).

Experiments:
[1] = biological target: T1, Solute carrier family 22 member 2 (Rattus norvegicus, UniProt Q9R0W2); assay: TP_TRANSPORTER: inhibition of TEA uptake (TEA: 100 uM) in Xenopus laevis oocytes; type: functional, cell-based, Oocyte
T1 sequence (Q9R0W2 whole entry): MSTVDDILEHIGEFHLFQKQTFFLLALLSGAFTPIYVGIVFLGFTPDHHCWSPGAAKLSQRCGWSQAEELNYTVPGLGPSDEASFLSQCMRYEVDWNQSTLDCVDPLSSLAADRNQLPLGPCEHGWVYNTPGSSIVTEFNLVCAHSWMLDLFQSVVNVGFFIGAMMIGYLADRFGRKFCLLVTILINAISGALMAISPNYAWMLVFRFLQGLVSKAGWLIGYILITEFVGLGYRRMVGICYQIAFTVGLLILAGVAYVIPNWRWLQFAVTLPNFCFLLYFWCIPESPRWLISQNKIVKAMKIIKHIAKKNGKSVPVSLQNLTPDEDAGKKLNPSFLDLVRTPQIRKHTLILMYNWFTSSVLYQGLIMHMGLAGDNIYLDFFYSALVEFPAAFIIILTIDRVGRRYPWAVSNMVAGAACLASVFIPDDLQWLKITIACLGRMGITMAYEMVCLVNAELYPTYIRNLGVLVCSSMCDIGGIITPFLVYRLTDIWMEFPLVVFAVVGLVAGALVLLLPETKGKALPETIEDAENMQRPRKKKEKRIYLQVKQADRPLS

[2] = biological target: T2, Solute carrier family 22 member 1 (Rattus norvegicus, UniProt Q63089)
T2 sequence (Q63089 whole entry): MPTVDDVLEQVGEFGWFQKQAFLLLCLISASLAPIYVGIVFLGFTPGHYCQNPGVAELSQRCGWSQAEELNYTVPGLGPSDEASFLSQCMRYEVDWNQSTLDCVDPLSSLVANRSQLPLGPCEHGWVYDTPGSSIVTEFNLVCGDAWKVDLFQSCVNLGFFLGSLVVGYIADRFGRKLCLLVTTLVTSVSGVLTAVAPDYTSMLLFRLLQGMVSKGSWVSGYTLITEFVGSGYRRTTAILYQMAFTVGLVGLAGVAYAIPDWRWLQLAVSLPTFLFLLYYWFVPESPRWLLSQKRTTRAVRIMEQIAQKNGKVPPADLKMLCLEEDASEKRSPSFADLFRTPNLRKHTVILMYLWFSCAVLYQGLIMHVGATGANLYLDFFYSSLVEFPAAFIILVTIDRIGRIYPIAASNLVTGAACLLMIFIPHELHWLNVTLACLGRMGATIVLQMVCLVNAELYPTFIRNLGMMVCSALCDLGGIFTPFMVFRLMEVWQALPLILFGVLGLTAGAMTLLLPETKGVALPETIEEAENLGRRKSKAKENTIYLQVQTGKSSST

[3] = biological target: T1, Solute carrier family 22 member 2; assay: TP_TRANSPORTER: inhibition of TEA uptake (TEA: 250 uM, Levofloxacin: 5000 uM) in Xenopus laevis oocytes; type: functional, cell-based; conditions: oocyte
[4] = substrate: CC[N+](CC)(CC)CC; assay: cells, lysate or membranes named

Molecule: CCN1/C(=C/c2ccc3ccccc3[n+]2CC)C=Cc2ccccc21
- IC50 [1]: 13.8 µM

Molecule: C[N+](C)(C)CCO [CHOLINE]
- IC50 [1]: 159 µM
- IC50 [2]: 398 µM

Molecule: CN/C(=N/CCSCc1nc[nH]c1C)NC#N [CIMETIDINE]
- IC50 [1]: 373 µM
- IC50 [2]: 329 µM

Molecule: C[C@H]1COc2c(N3CCN(C)CC3)c(F)cc3c(=O)c(C(=O)O)cn1c23.C[C@H]1COc2c(N3CCN(C)CC3)c(F)cc3c(=O)c(C(=O)O)cn1c23.O [LEVOFLOXACIN]
- Activity [3]: inhibitor [+]

B1: Solute carrier family 22 member 2 (Rattus norvegicus) (protein)
chain: T1 sequence (Q9R0W2 whole entry)
- Km [4]: 33.8 µM
